Results as given in patent US8192962B2, “Processes for detecting toxic substances” (Daikin Industries, Ltd., priority 2001, dated 2012).

System: Mitochondria-located protein genes
Experiment: DNA chip mRNA expression in yeast, mitochondria-located protein genes (Table 2)
Format: cell-based, Saccharomyces cerevisiae S288C
Conditions: cells incubated two hours with the chemical substance
Procedure, shortened: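 Values are treated/untreated fluorescence ratios from a whole-genome yeast DNA chip hybridized over 12 hours at 65° C with Cy3- or Cy5-labelled cDNA from poly(A) mRNA. Log-phase S288C yeast in YPD at 25° C had received a single toxic chemical for two hours, dosed to slow growth without killing.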

## [Cl][Hg][Cl] [(3), HgCl2]
Yeast gene YAL039C
  The level of expressed mRNA in the presence of chemical substance/The level of expressed mRNA in the absence of chemical substance: 1.7
Yeast gene YBL022C
  The level of expressed mRNA in the presence of chemical substance/The level of expressed mRNA in the absence of chemical substance: 1.2
Yeast gene YBL030C
  The level of expressed mRNA in the presence of chemical substance/The level of expressed mRNA in the absence of chemical substance: 4.5
Yeast gene YBL038W
  The level of expressed mRNA in the presence of chemical substance/The level of expressed mRNA in the absence of chemical substance: 0.5
Yeast gene YBL099W
  The level of expressed mRNA in the presence of chemical substance/The level of expressed mRNA in the absence of chemical substance: 3.1
Yeast gene YBR003W
  The level of expressed mRNA in the presence of chemical substance/The level of expressed mRNA in the absence of chemical substance: 1.0
Yeast gene YBR044C
  The level of expressed mRNA in the presence of chemical substance/The level of expressed mRNA in the absence of chemical substance: 0.7
Yeast gene YBR091C
  The level of expressed mRNA in the presence of chemical substance/The level of expressed mRNA in the absence of chemical substance: 0.6
Yeast gene YBR122C
  The level of expressed mRNA in the presence of chemical substance/The level of expressed mRNA in the absence of chemical substance: 0.3
Yeast gene YBR185C
  The level of expressed mRNA in the presence of chemical substance/The level of expressed mRNA in the absence of chemical substance: 1.3
Yeast gene YBR221C
  The level of expressed mRNA in the presence of chemical substance/The level of expressed mRNA in the absence of chemical substance: 3.2
Yeast gene YBR251W
  The level of expressed mRNA in the presence of chemical substance/The level of expressed mRNA in the absence of chemical substance: 1.0
Yeast gene YBR282W
  The level of expressed mRNA in the presence of chemical substance/The level of expressed mRNA in the absence of chemical substance: 0.5
Yeast gene YCL057W
  The level of expressed mRNA in the presence of chemical substance/The level of expressed mRNA in the absence of chemical substance: 2.3
Yeast gene YCR046C
  The level of expressed mRNA in the presence of chemical substance/The level of expressed mRNA in the absence of chemical substance: 1.2
Yeast gene YCR083W
  The level of expressed mRNA in the presence of chemical substance/The level of expressed mRNA in the absence of chemical substance: 1.5
Yeast gene YDL067C
  The level of expressed mRNA in the presence of chemical substance/The level of expressed mRNA in the absence of chemical substance: 1.6
Yeast gene YDL181W
  The level of expressed mRNA in the presence of chemical substance/The level of expressed mRNA in the absence of chemical substance: 1.9
Yeast gene YDL198C
  The level of expressed mRNA in the presence of chemical substance/The level of expressed mRNA in the absence of chemical substance: 2.1
Yeast gene YDR079W
  The level of expressed mRNA in the presence of chemical substance/The level of expressed mRNA in the absence of chemical substance: 0.8
Yeast gene YDR178W
  The level of expressed mRNA in the presence of chemical substance/The level of expressed mRNA in the absence of chemical substance: 3.4
Yeast gene YDR231C
  The level of expressed mRNA in the presence of chemical substance/The level of expressed mRNA in the absence of chemical substance: 1.0
Yeast gene YDR258C
  The level of expressed mRNA in the presence of chemical substance/The level of expressed mRNA in the absence of chemical substance: 2.8
Yeast gene YDR298C
  The level of expressed mRNA in the presence of chemical substance/The level of expressed mRNA in the absence of chemical substance: 2.6
Yeast gene YDR347W
  The level of expressed mRNA in the presence of chemical substance/The level of expressed mRNA in the absence of chemical substance: 0.9
Yeast gene YDR377W
  The level of expressed mRNA in the presence of chemical substance/The level of expressed mRNA in the absence of chemical substance: 1.3
Yeast gene YDR529C
  The level of expressed mRNA in the presence of chemical substance/The level of expressed mRNA in the absence of chemical substance: 0.9
Yeast gene YEL024W
  The level of expressed mRNA in the presence of chemical substance/The level of expressed mRNA in the absence of chemical substance: 3.8
Yeast gene YEL039C
  The level of expressed mRNA in the presence of chemical substance/The level of expressed mRNA in the absence of chemical substance: 1.3
Yeast gene YER178W
  The level of expressed mRNA in the presence of chemical substance/The level of expressed mRNA in the absence of chemical substance: 3.6
Yeast gene YFL016C
  The level of expressed mRNA in the presence of chemical substance/The level of expressed mRNA in the absence of chemical substance: 1.6
Yeast gene YGL018C
  The level of expressed mRNA in the presence of chemical substance/The level of expressed mRNA in the absence of chemical substance: 1.8
Yeast gene YGL187C
  The level of expressed mRNA in the presence of chemical substance/The level of expressed mRNA in the absence of chemical substance: 1.6
Yeast gene YGL191W
  The level of expressed mRNA in the presence of chemical substance/The level of expressed mRNA in the absence of chemical substance: 1.4
Yeast gene YGR008C
  The level of expressed mRNA in the presence of chemical substance/The level of expressed mRNA in the absence of chemical substance: 1.7
Yeast gene YGR028W
  The level of expressed mRNA in the presence of chemical substance/The level of expressed mRNA in the absence of chemical substance: 1.0
Yeast gene YGR062C
  The level of expressed mRNA in the presence of chemical substance/The level of expressed mRNA in the absence of chemical substance: 0.7
Yeast gene YGR076C
  The level of expressed mRNA in the presence of chemical substance/The level of expressed mRNA in the absence of chemical substance: 0.6
Yeast gene YGR082W
  The level of expressed mRNA in the presence of chemical substance/The level of expressed mRNA in the absence of chemical substance: 2.2
Yeast gene YGR174C
  The level of expressed mRNA in the presence of chemical substance/The level of expressed mRNA in the absence of chemical substance: 0.6
Yeast gene YGR244C
  The level of expressed mRNA in the presence of chemical substance/The level of expressed mRNA in the absence of chemical substance: 1.6
Yeast gene YHR008C
  The level of expressed mRNA in the presence of chemical substance/The level of expressed mRNA in the absence of chemical substance: 4.8
Yeast gene YIL155C
  The level of expressed mRNA in the presence of chemical substance/The level of expressed mRNA in the absence of chemical substance: 1.4
Yeast gene YJL096W
  The level of expressed mRNA in the presence of chemical substance/The level of expressed mRNA in the absence of chemical substance: 0.8
Yeast gene YJL102W
  The level of expressed mRNA in the presence of chemical substance/The level of expressed mRNA in the absence of chemical substance: 0.4
Yeast gene YJL133W
  The level of expressed mRNA in the presence of chemical substance/The level of expressed mRNA in the absence of chemical substance: 2.0
Yeast gene YJL166W
  The level of expressed mRNA in the presence of chemical substance/The level of expressed mRNA in the absence of chemical substance: 1.6
Yeast gene YJL180C
  The level of expressed mRNA in the presence of chemical substance/The level of expressed mRNA in the absence of chemical substance: 1.1
Yeast gene YJR045C
  The level of expressed mRNA in the presence of chemical substance/The level of expressed mRNA in the absence of chemical substance: 3.9
Yeast gene YJR077C
  The level of expressed mRNA in the presence of chemical substance/The level of expressed mRNA in the absence of chemical substance: 2.0
